Several values for one entry are separate records, joined by “and”; a condition that tells them apart may be missing. Identical values can stand only once.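 Interpolation was linear, between the two tested concentrations surrounding the appropriate level; five concentrations were tested over 48 hours in 96-well plates. GI50 is the concentration that inhibits growth by half.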 Activity calls are given as the source filed them. No stated cut-off is given here; in the data, active = GI50 up to about 1.1 µM and inactive = higher.
What was measured:
Experiment in all cases: NCI anticancer screen, dose series, 48 h
HCT-116 = tested on: HCT-116
HT-29 = tested on: HT-29
NCI-H226 = tested on: NCI-H226
T47D = tested on: T47D
EKVX = tested on: EKVX
BT-549 = tested on: BT-549
SK-MEL-2 = tested on: SK-MEL-2
MDA-N = tested on: MDA-N
A549 = tested on: A549
SNB-78 = tested on: SNB-78
MCF7 = tested on: MCF7
SK-MEL-5 = tested on: SK-MEL-5
MDA-MB-435 = tested on: MDA-MB-435
MOLT-4 = tested on: MOLT-4
Malme-3M = tested on: Malme-3M
HL-60 = tested on: HL-60
UACC-257 = tested on: UACC-257
SK-MEL-28 = tested on: SK-MEL-28
LXFL 529 = tested on: LXFL 529
SN12C = tested on: SN12C
786-0 = tested on: 786-0
KM-20L2 = tested on: KM-20L2
COLO 205 = tested on: COLO 205
Hs-578T = tested on: Hs-578T
CAKI-1 = tested on: CAKI-1
TK-10 = tested on: TK-10
UO-31 = tested on: UO-31
U-251 = tested on: U-251
KM12 = tested on: KM12
NCI/ADR-RES = tested on: NCI/ADR-RES
K562 = tested on: K562
MDA-MB-231 = tested on: MDA-MB-231
IGROV-1 = tested on: IGROV-1
LOX IMVI = tested on: LOX IMVI
CCRF-CEM = tested on: CCRF-CEM
PC-3 = tested on: PC-3
DU-145 = tested on: DU-145
M14 = tested on: M14
SR = tested on: SR
HCC 2998 = tested on: HCC 2998
OVCAR-8 = tested on: OVCAR-8
SW-620 = tested on: SW-620
HCT-15 = tested on: HCT-15
HOP-92 = tested on: HOP-92
OVCAR-3 = tested on: OVCAR-3
ACHN = tested on: ACHN
UACC-62 = tested on: UACC-62
OVCAR-5 = tested on: OVCAR-5
SNB-19 = tested on: SNB-19
NCI-H23 = tested on: NCI-H23
SF-295 = tested on: SF-295
RXF 393 = tested on: RXF 393
RPMI-8226 = tested on: RPMI-8226
SF-539 = tested on: SF-539
SNB-75 = tested on: SNB-75
A498 = tested on: A498
NCI-H522 = tested on: NCI-H522
SF-268 = tested on: SF-268
HOP-62 = tested on: HOP-62
NCI-H460 = tested on: NCI-H460
SK-OV-3 = tested on: SK-OV-3
OVCAR-4 = tested on: OVCAR-4

COc1ccc(-c2nc(SC)n(C3OC(COC(C)=O)C(OC(C)=O)C(OC(C)=O)C3OC(C)=O)c(=O)c2C#N)cc1 (stereo unspecified)
GI50 (HCT-116): > 100 µM (inactive) and 91.2 µM (inactive)
GI50 (HT-29): > 100 µM (inactive)
GI50 (NCI-H226): > 100 µM (inactive)
GI50 (T47D): 95.7 µM (inactive)
GI50 (EKVX): > 100 µM (inactive)
GI50 (BT-549): > 100 µM (inactive)
GI50 (SK-MEL-2): > 100 µM (inactive) and 73.3 µM (inactive)
GI50 (MDA-N): > 100 µM (inactive)
GI50 (A549): 59 µM (inactive)
GI50 (SNB-78): 21 µM (inactive)
GI50 (MCF7): > 100 µM (inactive)
GI50 (SK-MEL-5): > 100 µM (inactive)
GI50 (MDA-MB-435): > 100 µM (inactive)
GI50 (MOLT-4): 68.4 µM (inactive)
GI50 (Malme-3M): 65.6 µM (inactive)
GI50 (HL-60): > 100 µM (inactive)
GI50 (UACC-257): > 100 µM (inactive)
GI50 (SK-MEL-28): > 100 µM (inactive) and 72.1 µM (inactive)
GI50 (LXFL 529): 35.2 µM (inactive)
GI50 (SN12C): 39.7 µM (inactive)
GI50 (786-0): 64.3 µM (inactive)
GI50 (KM-20L2): 95.5 µM (inactive)
GI50 (COLO 205): > 100 µM (inactive)
GI50 (Hs-578T): 34.9 µM (inactive)
GI50 (CAKI-1): > 100 µM (inactive)
GI50 (TK-10): > 100 µM (inactive)
GI50 (UO-31): 27 µM (inactive) and 25.6 µM (inactive)
GI50 (U-251): 34.7 µM (inactive) and 39.5 µM (inactive)
GI50 (KM12): > 100 µM (inactive)
GI50 (NCI/ADR-RES): 79.8 µM (inactive)
GI50 (K562): > 100 µM (inactive)
GI50 (MDA-MB-231): > 100 µM (inactive)
GI50 (IGROV-1): > 100 µM (inactive)
GI50 (LOX IMVI): 56.4 µM (inactive)
GI50 (CCRF-CEM): > 100 µM (inactive)
GI50 (PC-3): > 100 µM (inactive)
GI50 (DU-145): > 100 µM (inactive)
GI50 (M14): 58.1 µM (inactive)
GI50 (SR): > 100 µM (inactive)
GI50 (HCC 2998): > 100 µM (inactive)
GI50 (OVCAR-8): 79.3 µM (inactive)
GI50 (SW-620): > 100 µM (inactive)
GI50 (HCT-15): > 100 µM

Cc1cc(C)nc(SC(C)C(=O)N/N=C/c2ccc(OCc3ccccc3)cc2)n1 (stereo unspecified)
GI50 (HCT-116): 23.9 µM (inactive)
GI50 (HOP-92): 28.6 µM (inactive)
GI50 (HT-29): 14.5 µM (inactive)
GI50 (OVCAR-3): 19.7 µM (inactive)
GI50 (NCI-H226): 18.9 µM (inactive)
GI50 (ACHN): 25.2 µM (inactive)
GI50 (T47D): 9.53 µM (inactive)
GI50 (EKVX): 25.2 µM (inactive)
GI50 (BT-549): 26.5 µM (inactive)
GI50 (SK-MEL-2): 21.6 µM (inactive)
GI50 (MDA-N): 22.8 µM (inactive)
GI50 (A549): 31.3 µM (inactive)
GI50 (UACC-62): 14.5 µM (inactive)
GI50 (MCF7): 21 µM (inactive)
GI50 (OVCAR-5): 78.9 µM (inactive)
GI50 (SK-MEL-5): 7.03 µM (inactive)
GI50 (SNB-19): 48.5 µM (inactive)
GI50 (MDA-MB-435): 26.7 µM (inactive)
GI50 (MOLT-4): 17.1 µM (inactive)
GI50 (Malme-3M): 22.3 µM (inactive)
GI50 (NCI-H23): 18 µM (inactive)
GI50 (HL-60): 14.5 µM (inactive)
GI50 (UACC-257): 7.41 µM (inactive)
GI50 (SF-295): 19.1 µM (inactive)
GI50 (SK-MEL-28): 53.2 µM (inactive)
GI50 (SN12C): 31.3 µM (inactive)
GI50 (RXF 393): 19.1 µM (inactive)
GI50 (RPMI-8226): 13.3 µM (inactive)
GI50 (786-0): 36.6 µM (inactive)
GI50 (SF-539): 50.8 µM (inactive)
GI50 (COLO 205): 20.8 µM (inactive)
GI50 (SNB-75): 33 µM (inactive)
GI50 (Hs-578T): 52 µM (inactive)
GI50 (CAKI-1): 20.5 µM (inactive)
GI50 (TK-10): 27.2 µM (inactive)
GI50 (UO-31): 32.1 µM (inactive)
GI50 (A498): 31.8 µM (inactive)
GI50 (U-251): 17 µM (inactive)
GI50 (KM12): > 100 µM (inactive)
GI50 (NCI/ADR-RES): 21.8 µM (inactive)
GI50 (K562): 6.11 µM (inactive)
GI50 (MDA-MB-231): 19.7 µM (inactive)
GI50 (IGROV-1): 54.8 µM (inactive)
GI50 (LOX IMVI): 22.1 µM (inactive)
GI50 (CCRF-CEM): 19.1 µM (inactive)
GI50 (PC-3): 22.4 µM (inactive)
GI50 (NCI-H522): 15.3 µM (inactive)
GI50 (DU-145): 37.7 µM (inactive)
GI50 (M14): 36.8 µM (inactive)
GI50 (SR): 7.89 µM (inactive)
GI50 (SF-268): 40.6 µM (inactive)
GI50 (HOP-62): 36 µM (inactive)
GI50 (HCC 2998): 28.1 µM (inactive)
GI50 (NCI-H460): 17.1 µM (inactive)
GI50 (SK-OV-3): 41.5 µM (inactive)
GI50 (OVCAR-4): 15.7 µM (inactive)
GI50 (OVCAR-8): 30.4 µM (inactive)
GI50 (SW-620): 39.5 µM (inactive)
GI50 (HCT-15): 26.4 µM

C=C1C(=O)O[C@@H]2CC(CO)=C([C@@H](C)CCCO)[C@@H](OC(=O)/C(C)=C\C)[C@H]12
GI50 (HCT-116): 8.07 µM (inactive)
GI50 (HOP-92): 19.6 µM (inactive)
GI50 (HT-29): 12.9 µM (inactive)
GI50 (OVCAR-3): 7.64 µM (inactive)
GI50 (NCI-H226): 28.4 µM (inactive)
GI50 (ACHN): 15.1 µM (inactive)
GI50 (T47D): 10.4 µM (inactive)
GI50 (EKVX): 13.7 µM (inactive)
GI50 (BT-549): 14.6 µM (inactive)
GI50 (SK-MEL-2): 20.9 µM (inactive)
GI50 (MDA-N): 15.1 µM (inactive)
GI50 (A549): 21.6 µM (inactive)
GI50 (UACC-62): 16 µM (inactive)
GI50 (MCF7): 10.2 µM (inactive)
GI50 (OVCAR-5): 28.5 µM (inactive)
GI50 (SK-MEL-5): 13.9 µM (inactive)
GI50 (SNB-19): 20.1 µM (inactive)
GI50 (MDA-MB-435): 15.8 µM (inactive)
GI50 (MOLT-4): 10.8 µM (inactive)
GI50 (Malme-3M): 13.3 µM (inactive)
GI50 (NCI-H23): 13.3 µM (inactive)
GI50 (HL-60): 1.83 µM (inactive)
GI50 (UACC-257): 15.6 µM (inactive)
GI50 (SF-295): 16.9 µM (inactive)
GI50 (SK-MEL-28): 12 µM (inactive)
GI50 (SN12C): 16.2 µM (inactive)
GI50 (RXF 393): 11.9 µM (inactive)
GI50 (RPMI-8226): 5.05 µM (inactive)
GI50 (786-0): 14.8 µM (inactive)
GI50 (SF-539): 22.2 µM (inactive)
GI50 (COLO 205): 14.5 µM (inactive)
GI50 (SNB-75): 27.2 µM (inactive)
GI50 (Hs-578T): 21.1 µM (inactive)
GI50 (CAKI-1): 22.1 µM (inactive)
GI50 (TK-10): 18.8 µM (inactive)
GI50 (UO-31): 16.8 µM (inactive)
GI50 (A498): 27.8 µM (inactive)
GI50 (U-251): 15 µM (inactive)
GI50 (KM12): 17.3 µM (inactive)
GI50 (NCI/ADR-RES): 20.2 µM (inactive)
GI50 (K562): 5.22 µM (inactive)
GI50 (MDA-MB-231): 24.9 µM (inactive)
GI50 (IGROV-1): 14.5 µM (inactive)
GI50 (LOX IMVI): 8.39 µM (inactive)
GI50 (CCRF-CEM): 2.29 µM (inactive)
GI50 (PC-3): 16 µM (inactive)
GI50 (NCI-H522): 2.62 µM (inactive)
GI50 (DU-145): 8.71 µM (inactive)
GI50 (M14): 23.5 µM (inactive)
GI50 (SR): 1.88 µM (inactive)
GI50 (SF-268): 15.6 µM (inactive)
GI50 (HOP-62): 34.9 µM (inactive)
GI50 (HCC 2998): 15.3 µM (inactive)
GI50 (NCI-H460): 9.98 µM (inactive)
GI50 (SK-OV-3): 25.9 µM (inactive)
GI50 (OVCAR-4): 22.2 µM (inactive)
GI50 (OVCAR-8): 20.6 µM (inactive)
GI50 (SW-620): 14.7 µM (inactive)
GI50 (HCT-15): 13.7 µM

From ChEMBL document CHEMBL1201862, “PubChem BioAssay data set” (2004)
